# Results as given in patent US8466290B2, “STAT3 inhibitor containing quinolinecarboxamide derivative as active ingredient” (Pharma IP General Incorporated Association, priority 2008, dated 2013).
# Read-outs that look alike come from different tables or passages of the source.
# Assays:
# [1] = tested on: Human lymphoma SCC-3 cells; assay: SCC-3 cell growth inhibition test (MTT method); assay type: cell-based; settings: 72-hour culture, read-out: Cell growth inhibitory activity (IC50: μM)
# Description: Simultaneously with cell inoculation, each test compound diluted to various concentrations with an RPMI medium was added to each well.
# [2] = tested on: human lymphoma SCC-3 cells; assay: Evaluation using human lymphoma-transplanted nude mice; settings: SCC-3 cancer-bearing nude mice; for T/C (%): tumor volume ratio vs control
# Description: 1×10^6 human lymphoma SCC-3 cells (containing Matrigel) were subcutaneously transplanted to the flank part of each 6-week-old male nude mouse (BALB/cA-nu/nu, CLEA Japan, Inc.). After the transplantation, the tumor volumes [major axis (mm) and minor axis (mm)] of the SCC-3 cancer-bearing mice were measured using an electronic vernier caliper (CD-10, Mitutoyo Corp.), and tumor volumes [mm^3: (major axis)x(minor axis)^2/2] were calculated. SCC-3 cancer-bearing mice whose tumor volume reached 50 to 300 mm^3 were selected and divided based on the tumor volumes into groups each containing 5 individuals. A test compound was suspended in a 0.5% methylcellulose solution and orally administered at a dose of 0.01 mL/g body weight once a day for 5 days (Day 0 (administration initiation day) to Day 4). To a control group, none was administered. The tumor volumes of the SCC-3 cancer-bearing mice were measured every day from the initiation of test compound administration to evaluate antitumor effect. The antitumor effect was assessed by calculating T/C (%) values according to the following formula:
# V: tumor volume on every assay day
# V0: tumor volume on the administration initiation day (V/V0 of the test compound group)/(V/V0 of the control group)×100
# [3] = tested on: STAT3; assay: STAT3 transcription inhibition test (reporter gene method, oncostatin M stimulation); assay type: cell-based; settings: compound at 100 μM, STAT3 reporter HeLa stable cell line, oncostatin M 10 ng/mL, 4 hours; for inhibition at 100 µM: Homo sapiens, read-out: STAT3 transcription inhibitory activity (%)
# Description: The inhibition of STAT3 transcription was evaluated by using STAT3 reporter HeLa stable cell line (Panomics Inc., catalog No. RC0003), a cell line for the reporter gene method, and performing the following method according to the appendix included therein.
# STAT3 reporter HeLa stable cell line subcultured and maintained in a Dulbecco's modified Eagle's medium (DMEM) containing 10% fetal bovine serum, 100 units/mL penicillin, and 100 μg/mL streptomycin was inoculated at a concentration of 40000 cells/well to a 96-well plate (white) and attached to the plate by overnight incubation at 37° C. under 5% CO2. After addition of each evaluation compound adjusted to various concentrations (adjusted with a DMSO solution), the cells were precultured for 1 hour. Then, oncostatin M for activating STAT3 was added at a final concentration 10 ng/mL, and the cells were further cultured at 37° C. under 5% CO2 for 4 hours. Luciferase activity derived from the cells was determined using Steady-Glo Luciferase Assay System (Promega Corp.), and STAT3 transcriptional activity scores were calculated according to the following formula: STAT3 transcriptional activity score (%)=100×(Lchem−L0)/(LDMSO−L0) Lo: luminescence intensity obtained without stimulation with oncostatin M Lchem: luminescence intensity obtained by the addition of a test sample LDMSO: luminescence intensity obtained by the addition of only a solvent for dissolving a test sample
# [4] = tested on: MDA-MB-435S; assay: MDA-MB-435S cell growth inhibitory activity; assay type: cell-based; settings: for inhibition at 20 µM: Homo sapiens, read-out: Cell growth inhibitory activity (%)
# Description: […] Each well was washed three times with a medium. Then, after addition of 100 μL/well of a medium and 20 μL/well of CellTiter 96 AQueous One Solution Reagent (Promega Corp.), the cells were incubated at 37° C. for 2 hours in the presence of 5% CO2.
# [5] = 40 mg/kg orally once a day for 5 days
# [6] = 160 mg/kg orally once a day for 5 days
IC50 ([1]; Homo sapiens),SMILES,inhibition at 100 µM [3],"inhibition at 20 µM ([4]; compound at 20 μM, 72 hours)",other results
4.6 µM,"N#Cc1ccc(-c2cc(C(=O)Nc3nnc(-c4ccco4)o3)c3ccccc3n2)cc1 [Ia-17, 2-(4-cyanophenyl)-N-[5-(2-furyl)-1,3,4-oxadiazol-2-yl]-4-quinolinecarboxamide]",80%,54%,–
2.1 µM,"O=C(Nc1nnc(-c2ccco2)o1)c1cc(-c2ccc(Cl)s2)nc2ccccc12 [Ia-19, 2-(5-chloro-2-thienyl)-N-[5-(2-furyl)-1,3,4-oxadiazol-2-yl]-4-quinolinecarboxamide]",77%,98%,–
1.9 µM,"O=C(Nc1nnc(-c2ccco2)o1)c1cc(-c2ccccc2)nc2cc(Br)ccc12 [Ia-24, 7-bromo-N-[5-(2-furyl)-1,3,4-oxadiazol-2-yl]-2-phenyl-4-quinolinecarboxamide]",72%,94%,–
6 µM,"Cc1cccc2c(C(=O)Nc3nnc(-c4ccco4)o3)cc(-c3ccccc3)nc12 [Ia-25, N-[5-(2-furyl)-1,3,4-oxadiazol-2-yl]-8-methyl-2-phenyl-4-quinolinecarboxamide]",77%,–,–
1.3 µM,"Cc1cc(C)c2nc(-c3cccs3)cc(C(=O)Nc3nnc(-c4ccco4)o3)c2c1 [Ia-33, N-[5-(2-furyl)-1,3,4-oxadiazol-2-yl]-6,8-dimethyl-2-(2-thienyl)-4-quinolinecarboxamide]",58%,79%,–
2 µM,"O=C(Nc1nnc(-c2ccco2)o1)c1cc(-c2ccc(Cl)cc2)nc2ccccc12 [Ia-47, 2-(4-chlorophenyl)-N-[5-(2-furyl)-1,3,4-oxadiazol-2-yl]-4-quinolinecarboxamide]",> 100%,82%,–
2.2 µM,"O=C(Nc1nnc(-c2ccco2)o1)c1cc(-c2ccc([N+](=O)[O-])cc2)nc2ccccc12 [Ia-52, N-[5-(2-furyl)-1,3,4-oxadiazol-2-yl]-2-(4-nitrophenyl)-4-quinolinecarboxamide]",> 100%,68%,–
2.1 µM,"O=C(Nc1nnc(-c2ccco2)o1)c1cc(-c2cccc3ccccc23)nc2ccccc12 [Ia-60, N-[5-(2-furyl)-1,3,4-oxadiazol-2-yl]-2-(1-naphthyl)-4-quinolinecarboxamide]",> 100%,100%,–
–,"O=C(Nc1nnc(-c2ccco2)o1)c1cc(/C=C/c2ccccc2)nc2ccccc12 [Ia-65, N-[5-(2-furyl)-1,3,4-oxadiazol-2-yl]-2-trans-styryl-4-quinolinecarboxamide]",–,–,"IC50 [1]: 2.6 µM; STAT3 transcription inhibitory activity (%) [3]: >100%; Cell growth inhibitory activity (%) ([4]; compound at 20 μM, 72 hours): 69%"
2.1 µM,"O=C(Nc1nnc(-c2ccco2)o1)c1cc(-c2ccccc2)nc2ccc(F)cc12 [Ia-67, 6-fluoro-N-[5-(2-furyl)-1,3,4-oxadiazol-2-yl]-2-phenyl-4-quinolinecarboxamide]",90%,–,–
1.9 µM,"Cc1ccc2nc(-c3ccccc3)cc(C(=O)Nc3nnc(-c4ccco4)o3)c2c1 [Ia-70, N-[5-(2-furyl)-1,3,4-oxadiazol-2-yl]-6-methyl-2-phenyl-4-quinolinecarboxamide]",> 100%,> 100%,–
2.2 µM,"O=C(Nc1nnc(-c2ccco2)o1)c1cc(-c2ccccc2)nc2cc(Cl)ccc12 [Ia-72, 7-chloro-N-[5-(2-furyl)-1,3,4-oxadiazol-2-yl]-2-phenyl-4-quinolinecarboxamide]",> 100%,–,–
0.7 µM,"O=C(Nc1nnc(-c2ccco2)o1)c1cc(-c2ccccc2)nc2c(Cl)cc(Cl)cc12 [Ia-74, 6,8-dichloro-N-[5-(2-furyl)-1,3,4-oxadiazol-2-yl]-2-phenyl-4-quinolinecarboxamide]",97%,82%,–
2.7 µM,"Cc1ccc(-c2cc(C(=O)Nc3nnc(-c4ccccc4)o3)c3ccccc3n2)cc1 [Ia-i, N-(5-phenyl-1,3,4-oxadiazol-2-yl)-2-(4-tolyl)-4-quinolinecarboxamide]",85%,–,–

SMILES,IC50 ([1]; Homo sapiens),inhibition at 100 µM [3],"inhibition at 20 µM ([4]; compound at 20 μM, 72 hours)",other results
"O=C(Nc1nnc(-c2ccco2)o1)c1cc(-c2ccccc2)nc2ccccc12 [Ia-1, N-[5-(2-furyl)-1,3,4-oxadiazol-2-yl]-2-phenyl-4-quinolinecarboxamide]",5.9 µM,54%,–,"The number of deaths [2, 5]: 0/5; T/C (%) [2, 5]: 38%; The number of deaths [2, 6]: 0/5; T/C (%) [2, 6]: 40%; inhibition at 20 µM ([4]; 72 h): 89%"
"O=C(Nc1nnc(-c2ccco2)o1)c1cc(-c2ccccc2)nc2ccc(Cl)cc12 [Ia-22, 6-chloro-N-[5-(2-furyl)-1,3,4-oxadiazol-2-yl]-2-phenyl-4-quinolinecarboxamide]",0.9 µM,76%,98%,"The number of deaths [2, 5]: 0/5; T/C (%) [2, 5]: 56%"
"CCCCOc1cc(C(=O)Nc2nnc(-c3ccco3)o2)c2ccccc2n1 [Ia-35, 2-(1-butoxy)-N-[5-(2-furyl)-1,3,4-oxadiazol-2-yl]-4-quinolinecarboxamide]",5.6 µM,57%,–,–
"CC(C)(C)OC(=O)c1cccc(-c2cc(C(=O)Nc3nnc(-c4ccco4)o3)c3ccccc3n2)c1 [Ia-44, 2-(3-tert-butoxycarbonylphenyl)-N-[5-(2-furyl)-1,3,4-oxadiazol-2-yl]-4-quinolinecarboxamide]",1.8 µM,> 100%,99%,–
"CC(C)(C)OC(=O)c1ccc(-c2cc(C(=O)Nc3nnc(-c4ccco4)o3)c3ccccc3n2)cc1 [Ia-53, 2-(4-tert-butoxycarbonylphenyl)-N-[5-(2-furyl)-1,3,4-oxadiazol-2-yl]-4-quinolinecarboxamide]",0.7 µM,> 100%,100%,–
"O=C(Nc1nnc(-c2ccco2)o1)c1cc(-c2ccccc2)nc2ccc(OC(F)(F)F)cc12 [Ia-71, N-[5-(2-furyl)-1,3,4-oxadiazol-2-yl]-2-phenyl-6-trifluoromethoxy-4-quinolinecarboxamide]",0.3 µM,> 100%,–,inhibition at 20 µM ([4]; 72 h): 85%
